Among the data in US20080039629A1, “Benzothniazole compositions and their use as ubiquition ligation inhibitors” (RIGEL PHARMACEUTICALS, INC., priority 2003, published 2008) are UBC10 and Results values, retold here.

The target of one assay is T1, E1 and His-E2 Ubch10 (Homo sapiens, UniProt P22314).
T1 construct: host or cells: E. coli (His-Ubch10); Sf9 insect cells (E1)
T1 sequence (P22314 1-1058): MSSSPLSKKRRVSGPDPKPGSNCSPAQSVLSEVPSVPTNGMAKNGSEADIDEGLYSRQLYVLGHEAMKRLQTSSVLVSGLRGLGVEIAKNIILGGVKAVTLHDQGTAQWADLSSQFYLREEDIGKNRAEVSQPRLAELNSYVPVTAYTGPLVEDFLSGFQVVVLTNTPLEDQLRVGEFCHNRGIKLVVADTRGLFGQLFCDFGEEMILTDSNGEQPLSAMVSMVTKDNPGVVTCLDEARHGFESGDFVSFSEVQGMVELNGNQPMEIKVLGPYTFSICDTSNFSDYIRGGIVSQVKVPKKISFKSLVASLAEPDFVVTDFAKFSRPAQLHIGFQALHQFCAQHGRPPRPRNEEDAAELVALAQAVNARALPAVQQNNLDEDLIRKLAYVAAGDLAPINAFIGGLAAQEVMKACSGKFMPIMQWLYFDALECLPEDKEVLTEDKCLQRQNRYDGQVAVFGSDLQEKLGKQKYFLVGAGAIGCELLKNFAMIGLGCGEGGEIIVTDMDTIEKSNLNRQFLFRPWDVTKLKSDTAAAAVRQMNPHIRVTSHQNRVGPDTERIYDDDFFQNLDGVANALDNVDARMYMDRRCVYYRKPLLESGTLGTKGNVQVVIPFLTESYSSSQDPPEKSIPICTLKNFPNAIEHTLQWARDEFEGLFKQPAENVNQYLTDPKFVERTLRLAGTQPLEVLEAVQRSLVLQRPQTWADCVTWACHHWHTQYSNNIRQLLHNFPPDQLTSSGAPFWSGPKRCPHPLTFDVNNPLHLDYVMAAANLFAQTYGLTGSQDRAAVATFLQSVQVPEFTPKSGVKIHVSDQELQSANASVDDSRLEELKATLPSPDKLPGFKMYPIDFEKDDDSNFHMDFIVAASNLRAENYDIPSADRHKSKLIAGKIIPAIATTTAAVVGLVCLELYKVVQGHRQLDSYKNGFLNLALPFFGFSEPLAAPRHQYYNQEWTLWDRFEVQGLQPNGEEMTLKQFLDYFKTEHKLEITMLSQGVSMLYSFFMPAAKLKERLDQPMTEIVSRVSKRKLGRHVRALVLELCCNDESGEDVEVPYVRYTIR
Nature of the assay: E1 to E2 transfer assay, His-E2 Ubch10, 1.0 μM ATP (low ATP). The class given is biochemical. The note with it: Table 5, ATP inhibition properties; inhibition measured using IC50 values. An outline of the steps: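 His-Ubch10 (20 ng/well), E1 (10 ng/well) and Flag-ubiquitin (100 ng) reacted 1 h at room temperature on nickel plates in 62.5 mM Tris pH 7.5, 0.75 mM DTT, 1.0 μM ATP with inhibitor. E2-ubiquitin complex detected by anti-Flag/HRP luminescence; IC50 determined.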
On to `COc1ccc2nc(NC(=O)c3ccc(NC(C)=O)cc3)sc2n1` [Compound 149, 4-acetamido-N-(5-methoxythiazolo[5,4-b]pyridin-2-yl)benzamide], for which the UBC10 entry is recorded as “++ (++ indicates inhibition at 50 μM or or less)”.
Consider `COc1ccc2nc(NC(=O)c3ccc([N+](=O)[O-])cc3)sc2n1` [Compound 150, N-(5-methoxythiazolo[5,4-b]pyridin-2-yl)-4-nitrobenzamide], for which the UBC10 result is listed as “++ (++ indicates inhibition at 50 μM or or less)”.
The same measure, in the same setting: the value for `COc1ccc(C(=O)Nc2nc3ccc(OC)nc3s2)cc1` [Compound 151, 4-methoxy-N-(5-methoxythiazolo[5,4-b]pyridin-2-yl)benzamide] was “++ (++ indicates inhibition at 50 μM or or less)”; that for `COc1ccc2nc(NC(=O)c3ccc(C)cc3)sc2n1` [Compound 152, N-(5-methoxythiazolo[5,4-b]pyridin-2-yl)-4-methylbenzamide] was “++ (++ indicates inhibition at 50 μM or or less)”.
As for `COc1ccc2nc(NC(=O)c3ccco3)sc2n1` [Compound 153, N-(5-methoxythiazolo[5,4-b]pyridin-2-yl)furan-2-carboxamide], the UBC10 result is on record as “++ (++ indicates inhibition at 50 μM or or less)”.
As for `COc1ccc2nc(NC(=O)c3ccc(F)cc3)sc2n1` [Compound 154, 4-fluoro-N-(5-methoxythiazolo[5,4-b]pyridin-2-yl)benzamide], the UBC10 entry is recorded as “++ (++ indicates inhibition at 50 μM or or less)”.
Still for that read-out and setting: then `COc1ccc2nc(NC(=O)c3ccc(Cl)cc3)sc2n1` [Compound 155, 4-chloro-N-(5-methoxythiazolo[5,4-b]pyridin-2-yl)benzamide], with “++ (++ indicates inhibition at 50 μM or or less)”; and `O=C(Nc1nc2ccccc2s1)c1ccc([N+](=O)[O-])o1` [Compound 156, N-(benzo[d]thiazol-2-yl)-5-nitrofuran-2-carboxamide], with “−− (−− indicates marginal or no inhibition detected with this assay)”; and `O=C(Nc1nc2ccccc2s1)c1ccccc1Br` [Compound 159, N-(benzo[d]thiazol-2-yl)-2-bromobenzamide], with “++ (++ indicates inhibition at 50 μM or or less)”.
The same measure, in the same setting: then `O=C(Nc1nc2ccccc2s1)c1ccccc1F` [Compound 164, N-(benzo[d]thiazol-2-yl)-2-fluorobenzamide], with “−− (−− indicates marginal or no inhibition detected with this assay)”; and `O=C(Nc1nc2ccccc2s1)c1ccccc1` [Compound 168, N-(benzo[d]thiazol-2-yl)benzamide], with “−− (−− indicates marginal or no inhibition detected with this assay)”.
As to `O=C(Nc1nc2ccccc2s1)c1ccccc1[N+](=O)[O-]` [Compound 169, N-(benzo[d]thiazol-2-yl)-2-nitrobenzamide], the UBC10 entry was “−− (−− indicates marginal or no inhibition detected with this assay)”.
As for `CCCc1ccc(C(=O)Nc2nc3ccccc3s2)cc1` [Compound 170, N-(benzo[d]thiazol-2-yl)-4-propylbenzamide], the UBC10 result is listed as “−− (−− indicates marginal or no inhibition detected with this assay)”.
Turning to `O=C(Nc1nc2ccccc2s1)c1ccc(Br)cc1` [Compound 172, N-(benzo[d]thiazol-2-yl)-4-bromobenzamide], the UBC10 result was “−− (−− indicates marginal or no inhibition detected with this assay)”.
Take `O=C(Nc1nc2ccccc2s1)c1cccc(F)c1` [Compound 174, N-(benzo[d]thiazol-2-yl)-3-fluorobenzamide]: the UBC10 result was “−− (−− indicates marginal or no inhibition detected with this assay)”.
As to `CC(C)(C)c1ccc(C(=O)Nc2nc3ccccc3s2)cc1` [Compound 176, N-(benzo[d]thiazol-2-yl)-4-tert-butylbenzamide], the UBC10 result is “−− (−− indicates marginal or no inhibition detected with this assay)”.
In the case of `O=C(O)c1ccc2c(c1)C(=O)N(c1nc3ccccc3s1)C2=O` [Compound 181, 2-(benzo[d]thiazol-2-yl)-1,3-dioxosioindoline-5-carboxylic acid], the UBC10 entry was “−− (−− indicates marginal or no inhibition detected with this assay)”.
Take `O=C(Nc1nc2ccccc2s1)c1cccc(Cl)c1` [Compound 186, N-(benzo[d]thiazol-2-yl)-3-chlorobenzamide]: the UBC10 entry was “−− (−− indicates marginal or no inhibition detected with this assay)”.
Turning to `COc1cccc(C(=O)Nc2nc3ccccc3s2)c1` [Compound 189, N-(benzo[d]thiazol-2-yl)-3-methoxybenzamide], the UBC10 entry was “−− (−− indicates marginal or no inhibition detected with this assay)”.
As to `O=C(Nc1nc2ccccc2s1)c1ccccc1Cl` [Compound 194, N-(benzo[d]thiazol-2-yl)-2-chlorobenzamide], the UBC10 result was “−− (−− indicates marginal or no inhibition detected with this assay)”.
Still for that read-out and setting: the value for `O=C(Nc1nc2ccccc2s1)c1cccc(I)c1` [Compound 195, N-(benzo[d]thiazol-2-yl)-3-iodobenzamide] was “++ (++ indicates inhibition at 50 μM or or less)”.
With `O=C(Nc1nc2ccccc2s1)C1CCCCC1` [Compound 205, N-(benzo[d]thiazol-2-yl)cyclohexanecarboxamide], the UBC10 result is listed as “−− (−− indicates marginal or no inhibition detected with this assay)”.
The same measure, in the same setting: then `O=C(Nc1nc2ccccc2s1)c1ccc(Br)o1` [Compound 208, N-(benzo[b]thiazol-2-yl)-5-bromofuran-2-carboxamide], with “−− (−− indicates marginal or no inhibition detected with this assay)”.
`CC(C)c1ccc(C(=O)Nc2nc3ccccc3s2)cc1` [Compound 222, N-(benzo[d]thiazol-2-yl)-4-isopropylbenzamide]: the UBC10 entry is “−− (−− indicates marginal or no inhibition detected with this assay)”.
The same measure, in the same setting: the value for `CN(C)c1ccccc1C(=O)Nc1nc2ccccc2s1` [Compound 223, N-(benzo[d]thiazol-2-yl)-2-(dimethylamino)benzamide] was “−− (−− indicates marginal or no inhibition detected with this assay)”.
Still for that read-out and setting: then `O=C(Nc1nc2ccccc2s1)[C@H]1CCN1` [Compound 224, (R)-N-(benzo[d]thiazol-2-yl)azetidine-2-carboxamide], with “−− (−− indicates marginal or no inhibition detected with this assay)”; and `O=C(Nc1nc2ccccc2s1)C1CCNCC1` [Compound 225, N-(benzo[d]thiazol-2-yl)piperidine-4-carboxamide], with “−− (−− indicates marginal or no inhibition detected with this assay)”.

The next assay deals with T2, E1 and His-E2 Ubch10 (UBC10) (Homo sapiens, UniProt P22314).
T2 construct: host or cells: E. coli (His-Ubch10); Sf9 insect cells (E1)
T2 sequence (P22314 1-1058): T1 sequence (P22314 1-1058)
Nature of the assay: ATP competitive assay, 200 μM ATP (high ATP). The assay is classed as biochemical. As to conditions: conclusion from UBC10 inhibition at 1 μM versus 200 μM ATP. Here is the method:
The attachment of a ubiquitin moiety to the E2 conjugating agent was assayed using Flag-ubiquitin that was purified from E. coli, E2 Ubch10 that was purified as a His-Ubch10 from E. coli, and E1 that was purified from Sf9 insect cells (Affiniti Research Products, Exeter, U.K.). The wells of a Nickel-substrate 96-well plate (Pierce Chemical) were blocked with 100 μl of 1% casein/phosphate buffered saline (PBS) for 1 hour at room temperature. The blocked Nickel-substrate plate was then washed three times with 200 μl of PBST (0.1% Tween-20 in PBS). […] The final reaction solution volume was fixed to 80 μl with Millipore-filtered water. To this was added the following: a ubiquitin agent inhibitor in 10 μl of DMSO, 10 μl of E1 and His-E2 Ubch10 in 20 mM Tris buffer, pH 7.5, and 5% glycerol so that there was 10 ng/well of E1 and 20 ng/well of His-E2 Ubch10. […]
After 1 hour, the wells were washed three times with 200 μl of PBST and the amount of E2-ubiquitin complex was measured. […] The luminescence of each well was then measured using a […] to calculate the amount of E2-ubiquitin complex. […]
The table below illustrates the ATP competitive inhibition properties of the pharmaceutical compositions of the invention comprising the compounds listed in the table using the ATP competitive assay described above. Inhibition was measured using IC50 values.
Consider `COc1ccc2nc(NC(=O)c3ccc(C)cc3)sc2c1` [Compound 3, N-(6-methoxy-1,3-benzothiazoi-2-yl)-4-methylbenzamide], for which the Results entry is recorded as “ATP competitve”.
